Experimental data: patent publication US5028607A, “Bis(aryl)alkene compounds” (Adir et Compagnie, priority 1989, dated 1991)
Where a name gives a salt, the structure may show the parent alone. Read-outs that look alike come from different tables or passages of the source.

Legend:
5-hydroxytryptophan = experiment: 5-HTP antagonism (symptoms induced by 5-hydroxytryptophan); format: in vivo, rats (female Wistar); details: Rattus norvegicus
Description: The animals are then placed under observation in transparent cages. Three parameters are assessed in the study: "forepaw treading", "flat body posture" and "head twitches". "Forepaw treading" corresponds to a pedaling motion of the forelimbs. This parameter is measured 80 minutes after the administration of […] and during a 10-minute observation period. […] This parameter is assessed throughout the period of observation of the animals.

α1 = α1 antagonism (inhibition of phenylephrine hypertensive response, pithed rats); format: in vivo, rats (male Sprague-Dawley); details: cumulative doses, phenylephrine 4 g/kg i.v., Tertatolol 100 μg/kg i.v. pretreatment
Text: α1 antagonism Male Sprague-Dawley rats (300-400 g) which have been subjected to a water diet are anesthetized with ethyl ether. A cannula is placed in the trachea. The spinal cord is destroyed by means of a steel rod and artificial respiration is instituted at once. The vagus nerves are sectioned. The carotid arteries are ligated and a catheter is placed in one of them to record the arterial blood pressure. A second catheter is placed in the vein of the penis and is used for the injections. The animals' temperature is taken and is maintained at 36° C. The rats are pretreated with a β-blocker (Tertatolol 100 μg/kg i.v.). Phenylephrine is injected at a dose of […] i.v. Two identical injections are performed, separated by an interval of 10 minutes. The compounds of the invention are injected at the lowest dose and injection of phenylephrine is performed again 10 minutes later. 3 or 4 cumulative doses of the compounds of the invention are tested in the same manner. The values for the percentage inhibition of the hypertensive response which are obtained at the different doses are calculated in order to determine the ID50.

5-HT2 = biological target: T1, 5-HT2 (Rattus norvegicus, UniProt P14842); experiment: 5-HT2 antagonism (inhibition of 5-hydroxytryptamine hypertensive response, anesthetized rats); format: in vivo, rats (male Sprague-Dawley); details: iv, cumulative doses, 5-hydroxytryptamine 100 μg/kg i.v., rats pretreated with d-tubocurarine and prazosin, read-out: ID50, dose inhibiting the hypertensive response by 50%
T1 construct: from tissue; host or cells: whole anesthetized male Sprague-Dawley rat; vasculature (blood pressure response)
Description: Male Sprague-Dawley rats (350-400 g) are anesthetized i.p. with pentobarbital (45 mg/kg). The trachea is cannulated and the animals are subjected to artificial respiration. The vagus nerves are sectioned. A catheter is placed in a carotid artery to record the arterial blood pressure. A second catheter is placed in the vein of the penis and is used for the injections. The animals' temperature is taken and is maintained at 37° C. The rats are pretreated with d-tubocurarine (1 mg/kg i.v.) and prazosin (1 mg/kg i.v.). 5-Hydroxytryptamine is injected i.v. at a dose of 100 μg/kg twice, separated by an interval of 10 minutes, so as to determine the rise in the systolic arterial blood pressure of each rat. 10 minutes later, the compounds of the invention are injected at the lowest dose and injection of 5-hydroxytryptamine is performed again 10 minutes later. 3 or 4 cumulative doses of the compounds of the invention are tested in the same manner. The percentages of the hypertensive response which are obtained at the different doses are calculated in order to determine the ID50, the dose inhibiting the hypertensive response by 50%.

[1] = po, 80 min, compounds orally, 5-hydroxytryptophan 320 mg/kg by gavage, scored at 80 minutes, read-out: ED50 FPT (forepaw treading)
[2] = po, 1.5 h, read-out: ED50 HT (head twitches)
[3] = po, compounds orally, 5-hydroxytryptophan 320 mg/kg by gavage, read-out: ED50 FBP (flat body posture)
[4] = sc, 80 min, compounds subcutaneously, 5-hydroxytryptophan 320 mg/kg by gavage, scored at 80 minutes, read-out: ED50 FPT (forepaw treading)
[5] = sc, compounds subcutaneously, 5-hydroxytryptophan 320 mg/kg by gavage, read-out: ED50 FBP (flat body posture)
[6] = sc, 1.5 h, read-out: ED50 HT (head twitches)
[7] = ip, 80 min, compounds intraperitoneally, 5-hydroxytryptophan 320 mg/kg by gavage, scored at 80 minutes, read-out: ED50 FPT (forepaw treading)
[8] = ip, 1.5 h, read-out: ED50 HT (head twitches)
[9] = ip, compounds intraperitoneally, 5-hydroxytryptophan 320 mg/kg by gavage, read-out: ED50 FBP (flat body posture)

T1 sequence (P14842 whole entry): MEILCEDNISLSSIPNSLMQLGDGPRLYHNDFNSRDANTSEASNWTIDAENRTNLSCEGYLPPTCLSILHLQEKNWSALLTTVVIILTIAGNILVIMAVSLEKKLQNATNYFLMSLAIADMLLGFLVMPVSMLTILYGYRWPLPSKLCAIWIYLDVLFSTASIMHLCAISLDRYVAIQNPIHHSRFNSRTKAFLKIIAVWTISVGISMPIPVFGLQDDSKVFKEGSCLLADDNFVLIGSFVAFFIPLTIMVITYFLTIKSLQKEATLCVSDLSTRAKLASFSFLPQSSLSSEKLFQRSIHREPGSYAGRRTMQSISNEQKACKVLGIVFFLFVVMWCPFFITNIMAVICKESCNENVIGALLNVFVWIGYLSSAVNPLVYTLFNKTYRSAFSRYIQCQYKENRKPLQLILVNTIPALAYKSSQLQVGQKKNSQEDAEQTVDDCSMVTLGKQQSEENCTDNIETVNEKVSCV

SMILES: Cc1nc2c(C#N)ncn2c(O)c1CCN1CCC(=C(c2ccccc2)c2ccc(F)cc2)CC1.Cl [EXAMPLE 4, 8-Cyano-3-{2-[4-[(4-fluorophenyl)phenylmethylene]piperidino]ethyl}-4-hydroxy-2-methylimidazo[1,5-a]-pyrimidine hydrochloride]
- ED50 (5-hydroxytryptophan; [1]): 1.25 mg/kg
- ED50 (5-hydroxytryptophan; [2]): 10 mg/kg
- ED50 (5-hydroxytryptophan; [3]): 1.25 mg/kg
- ID50, inhibition of the hypertensive response to phenylephrine (α1): > 5 mg/kg

SMILES: Cc1ccc(C(=C2CCN(CCc3c(C)nc4c(C(N)=O)ncn4c3O)CC2)c2ccccc2)cc1.Cl [EXAMPLE 13, 8-Carbamoyl-4-hydroxy-3-{2-[4-[(4-methylphenyl)-phenylmethylene]piperidino]ethyl}-2-methylimidazo[1,5-a]-pyrimidine hydrochloride]
- ED50 (5-HT2): 0.027 mg/kg
- ID50, inhibition of the hypertensive response to phenylephrine (α1): 3.05 mg/kg

SMILES: Cc1nc2c(C(N)=O)ncn2c(O)c1CCN1CCC(C=C(c2ccc(F)cc2)c2ccc(F)cc2)C1 (centres unmarked) [EXAMPLE 24, 3-(3-4-2,2-Bis(4-fluorophenyl)vinyl]pyrrolidino]ethyl}-8-carbamoyl-4-hydroxy-2-methylimidazo[1,5-a]-pyrimidine hydrochloride]
- ID50, inhibition of the hypertensive response to phenylephrine (α1): > 5 mg/kg

SMILES: Cc1nc2c(C(N)=O)ncn2c(O)c1CCN1CCCC(C=C(c2ccc(F)cc2)c2ccc(F)cc2)C1 (centres unmarked) [EXAMPLE 23, 3-{2-[3-[2,2-Bis(4-fluorophenyl)vinylene]piperidino]ethyl}-8-carbamoyl-4-hydroxy-2-methylimidazo[1,5-a]-pyrimidinehydrochloride]
- ID50, inhibition of the hypertensive response to phenylephrine (α1): > 5 mg/kg

SMILES: Cc1nc2c(C(N)=O)ncn2c(O)c1CCN1CCC(=C(c2ccccc2)c2ccc(F)cc2)CC1.Cl [EXAMPLE 3, 8-Carbamoyl-3-{2-[4-[(4-fluorophenyl)phenylmethylene]piperidino]ethyl}-4-hydroxy-2-methylimidazo[1,5-a]-pyrimidine hydrochloride]
- ED50 (5-HT2): 0.024 mg/kg
- ED50 (5-hydroxytryptophan; [4]): 10 mg/kg
- ED50 (5-hydroxytryptophan; [5]): 10 mg/kg
- ID50, inhibition of the hypertensive response to phenylephrine (α1): > 5 mg/kg

SMILES: O=C1CN(Cc2ccccc2F)CC(=O)N1CCCN1CCC(C=C(c2ccc(F)cc2)c2ccc(F)cc2)C1 (centres unmarked) [EXAMPLE 8, 1-{3-[3-[2,2-bis(4-fluorophenyl)vinylene]-1-pyrrolidinyl]propyl}-4-(2-fluorobenzyl)-2,6-piperazinedione dihydrochloride]
- ID50, inhibition of the hypertensive response to phenylephrine (α1): 5.3 mg/kg

SMILES: Cc1nc2c(C#N)ncn2c(O)c1CCN1CCC(=C(c2ccc(F)cc2)c2ccc(F)cc2)CC1 [EXAMPLE 11, 3-{2-[4-Bis(4-fluorophenyl)methylene]piperidino]ethyl}-8-cyano-4-hydroxy-2-methylimidazo[1,5-a]-pyrimidine hydrochloride]
- ED50 (5-hydroxytryptophan; [1]): 5 mg/kg
- ED50 (5-hydroxytryptophan; [2]): 10 mg/kg
- ED50 (5-hydroxytryptophan; [3]): 1.25 mg/kg
- ID50, inhibition of the hypertensive response to phenylephrine (α1): > 5 mg/kg

SMILES: Cl.O=C1CN(Cc2ccccc2F)CC(=O)N1CCCN1CCC(=C(c2ccccc2)c2ccc(F)cc2)CC1 [EXAMPLE 5, 4-(2-Fluorobenzyl)-1-{3-[4-[(4-fluorophenyl)phenylmethylene]piperidino]propyl}-2,6-piperazinedione hydrochloride]
- ED50 (5-HT2): 0.034 mg/kg

SMILES: Cc1nc2c(C(N)=O)ncn2c(O)c1CCCN1CCC(=C(c2ccccc2)c2ccc(F)cc2)CC1.Cl [EXAMPLE 9, 8-Carbamoyl-3-{3-[4-[(4-fluorophenyl)phenylmethylene]piperidino]propyl}-4-hydroxy-2-methylimidazo[1,5-a]-pyrimidine hydrochloride]
- ID50, inhibition of the hypertensive response to phenylephrine (α1): > 5 mg/kg

SMILES: O=C1CN(Cc2ccccc2F)CC(=O)N1CCCN1CCC(=C2c3ccccc3-c3ccccc32)CC1 [EXAMPLE 6, 1-{3-[4-(9-Fluorenylidenyl)piperidino]propyl}-4-(2-fluorobenzyl)-2,6-piperazinedione hydrochloride]
- ED50 (5-HT2): 0.039 mg/kg
- ED50 (5-hydroxytryptophan; [1]): 5 mg/kg
- ED50 (5-hydroxytryptophan; [3]): 2.5 mg/kg

SMILES: O=c1[nH]c2ccccc2c(=O)n1CCN1CCCC(=C(c2ccc(F)cc2)c2ccc(F)cc2)CC1 [EXAMPLE 25, 3-{2-[4-[Bis(4-fluorophenyllmethylene]perhydroazepin-1-yl]ethyl}-2,4-dioxo-1,2,3,4-tetrahydrocuinazoline hydrochloride]
- ID50, inhibition of the hypertensive response to phenylephrine (α1): 3.05 mg/kg

SMILES: Fc1ccc(C(=C2CCN(CCCN3CCN(c4ncccn4)CC3)CC2)c2ccc(F)cc2)cc1 [EXAMPLE 7, 1-{3-[4-Bis(4-fluorophenyl)methylene]piperidino]propyl}-4-(2-pyrimidinyl)piperazine dihydrochloride]
- ED50 (5-hydroxytryptophan; [4]): 5 mg/kg
- ED50 (5-hydroxytryptophan; [6]): > 10 mg/kg
- ED50 (5-hydroxytryptophan; [5]): 5 mg/kg

SMILES: Cc1nc2c(C(N)=O)ncn2c(O)c1CCN1CCC(=C(c2ccc(F)cc2)c2ccc(F)cc2)CC1.Cl [EXAMPLE 1, 3-{2-[4-[bis(4-fluorophenyl)methylene]piperidino]ethyl}-8-carbamoyl-4-hydroxy-2-methylimidazo [1,5-a]pyrimidine hydrochloride]
- ED50 (5-HT2): 0.013 mg/kg
- ED50 (5-hydroxytryptophan; [7]): 2.5 mg/kg
- ED50 (5-hydroxytryptophan; [8]): 0.63 mg/kg
- ED50 (5-hydroxytryptophan; [9]): 0.08 mg/kg
- ED50 (5-hydroxytryptophan; [1]): 10 mg/kg
- ED50 (5-hydroxytryptophan; [2]): > 10 mg/kg
- ED50 (5-hydroxytryptophan; [3]): 0.16 mg/kg
- ID50, inhibition of the hypertensive response to phenylephrine (α1): > 5 mg/kg

SMILES: O=C1CN(Cc2ccccn2)CC(=O)N1CCCN1CCC(=C(c2ccccc2)c2ccc(F)cc2)CC1 [EXAMPLE 10, 1-{3-4-(4-Fluorophenyl)phenylmethylene]piperidino]propyl}-4-(2-pyridylmethyl)-2,6-piperazinedione dihydrochloride]
- ED50 (5-HT2): 0.0082 mg/kg
- ED50 (5-hydroxytryptophan; [4]): 1.25 mg/kg
- ED50 (5-hydroxytryptophan; [6]): 40 mg/kg
- ED50 (5-hydroxytryptophan; [5]): 0.16 mg/kg

SMILES: Cl.Cl.O=C1CN2Cc3ccccc3CC2C(=O)N1CCN1CCC(=C(c2ccccc2)c2ccc(F)cc2)CC1 (centres unmarked) [EXAMPLE 2, 2-{2-[4-[(4-Fluorophenyl)phenylmethylene]piperidino]ethyl}-1,3,4,6,11,11a-hexahydro-1,3-dioxo-2H-pyrazino[1,2-b]-isoquinoline dihydrochloride]
- ED50 (5-hydroxytryptophan; [7]): 1.25 mg/kg
- ED50 (5-hydroxytryptophan; [8]): 5 mg/kg
- ED50 (5-hydroxytryptophan; [9]): 1.25 mg/kg
